Experimental data reported in US10577378B2, “EIF4A-inhibiting compounds and methods related thereto” (eFFECTOR Therapeutics, Inc., priority 2015, dated 2020).
Where two headings read alike, the source gives them in different places.

Test system: MDA-MB-231 human breast cancer cells
Experiment: Cell proliferation assay (CellTiter-Glo, 72 hours treatment)
Type: cell-based
Settings: Homo sapiens, read-out: MDA-MB-231 cell proliferation assay (IC50)
How it was run: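 MDA-MB-231 cells seeded at 2,500 cells/well, treated next day with compound or DMSO vehicle for 72 h at 37 °C. Proliferation read by CellTiter-Glo; IC50 from sigmoidal non-linear regression, binned as +++ (<100 nM), ++ (100–1000 nM), + (>1000 nM).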

[1] = MDA-MB-231 cells, 72 hours at 37° C., CellTiter-Glo

| Structure (SMILES) | IC50 [1] [nM] | IC50 (MDA-MB-231, 72 h) [nM] |
| --- | --- | --- |
| CN(C)C[C@H]1[C@@H](O)[C@@]2(O)c3ncc(Cl)cc3O[C@@]2(c2ccc(C#N)cc2)[C@@H]1c1ccccc1 (racemic) [40Fb, rac-4-((5aR,6S,7S,8R,8aS)-3-chloro-7-((dimethylamino)methyl)-8,8a-dihydroxy-6-phenyl-6,7,8,8a-tetrahydro-5aH-cyclopenta[4,5]furo[3,2-b]pyridin-5a-yl)benzonitrile] | 100 to 1000 |  |
| COc1cncc2c1[C@]1(O)[C@H](O)[C@H](C(=O)N(C)CCF)[C@@H](c3ccccc3)[C@]1(c1ccc(Br)cc1)O2 (racemic) [247F, Rac-(4bS,5R,6R,7S,7aR)-7a-(4-bromophenyl)-N-(2-fluoroethyl)-4b,5-dihydroxy-4-methoxy-N-methyl-7-phenyl-4b,6,7,7a-tetrahydro-5H-cyclopenta[4,5]furo[2,3-c]pyridine-6-carboxamide] | < 100 |  |
| COc1cncc2c1[C@]1(O)[C@H](O)[C@H](CN(C)C)[C@@H](c3ccccc3)[C@]1(c1ccc(C(F)(F)F)cc1)O2 (single isomer, unassigned) [107F] | 100 to 1000 |  |
| COc1nc(Cl)cc2c1[C@]1(O)[C@H](O)[C@H](CN(C)C)[C@@H](c3ccccc3)[C@]1(c1ccc(C#N)cc1)O2 (single isomer, unassigned) [140F] | < 100 |  |
| COc1cncc2c1[C@]1(O)[C@H](O)[C@H](C(=O)N3CC4(COC4)C3)[C@@H](c3ccccc3)[C@]1(c1ccc(Br)cc1)O2 (racemic) [235F, Rac-((4bS,5R,6R,7S,7aR)-7a-(4-bromophenyl)-4b,5-dihydroxy-4-methoxy-7-phenyl-4b,6,7,7a-tetrahydro-5H-cyclopenta[4,5]furo[2,3-c]pyridin-6-yl)(2-oxa-6-azaspiro[3.3]heptan-6-yl)methanone] | < 100 |  |
| N#Cc1ccc([C@@]23Oc4cc(Cl)cnc4[C@]2(O)[C@@H](CN2CCOCC2)C[C@H]3c2ccccc2)cc1 (racemic) [178F, Rac-4-((5aR,6S,8R,8aR)-3-chloro-8a-hydroxy-8-(morpholinomethyl)-6-phenyl-6,7,8,8a-tetrahydro-5aH-cyclopenta[4,5]furo[3,2-b]pyridin-5a-yl)benzonitrile] | < 100 |  |
| CNC(=O)[C@H]1[C@@H](O)[C@@]2(O)c3ncc(Cl)cc3O[C@@]2(c2ccc(C#N)cc2)[C@@H]1c1ccccc1 (single isomer, unassigned) [20F] | < 100 |  |
| CCNC[C@@H]1[C@@H](c2ccccc2)[C@]2(C3=CC=C(C#N)CC3)Oc3cncc(OC)c3[C@]2(O)[C@@H]1O (racemic) [70F, Rac-4-((4bS,5R,6S,7S,7aR)-6-((ethylamino)methyl)-4b,5-dihydroxy-4-methoxy-7-phenyl-4b,5,6,7-tetrahydro-7aH-cyclopenta[4,5]furo[2,3-c]pyridin-7a-yl)cyclohexa-1,3-diene-1-carbonitrile] | 100 to 1000 |  |
| COc1nc(Cl)cc2c1[C@]1(O)[C@H](O)[C@H](CN(C)CC(F)F)[C@@H](c3ccccc3)[C@]1(c1ccc(C#N)cc1)O2 (racemic) [208Fb, Rac-4-((5aR,6S,7S,8R,8aS)-3-chloro-7-(((2,2-difluoroethyl)(methyl)amino)methyl)-8,8a-dihydroxy-1-methoxy-6-phenyl-6,7,8,8a-tetrahydro-5aH-cyclopenta[4,5]furo[3,2-c]pyridin-5a-yl)benzonitrile] | 100 to 1000 |  |
| COc1cncc2c1[C@]1(O)[C@H](O)[C@H](C(=O)N(C)CC(F)F)[C@@H](c3ccccc3)[C@]1(c1ccc(Br)cc1)O2 (racemic) [111F, Rac-(4bS,5R,6R,7S,7aR)-7a-(4-bromophenyl)-N-(2,2-difluoroethyl)-4b,5-dihydroxy-4-methoxy-N-methyl-7-phenyl-4b,6,7,7a-tetrahydro-5H-cyclopenta[4,5]furo[2,3-c]pyridine-6-carboxamide] | < 100 |  |
| COc1cncc2c1[C@]1(O)[C@H](O)[C@H](C(=O)N3[C@@H]4COC[C@H]3C4)[C@@H](c3ccccc3)[C@]1(c1ccc(Br)cc1)O2 (racemic) [266F, Rac-((1R,5S)-3-oxa-6-azabicyclo[3.1.1]heptan-6-yl)((4bS,5R,6R,7S,7aR)-7a-(4-bromophenyl)-4b,5-dihydroxy-4-methoxy-7-phenyl-4b,6,7,7a-tetrahydro-5H-cyclopenta[4,5]furo[2,3-c]pyridin-6-yl)methanone] | < 100 |  |
| O[C@H]1C[C@@H](c2ccccc2)[C@]2(c3ccc(Br)cc3)Oc3cc(Cl)cnc3[C@]12O (racemic) [130F, Rac-(5aR,6S,8S,8aS)-5a-(4-bromophenyl)-3-chloro-6-phenyl-5a,6,7,8-tetrahydro-8aH-cyclopenta[4,5]furo[3,2-b]pyridine-8,8a-diol] | > 1000 |  |
| COc1ccc([C@@]23Oc4cc(OC)ccc4[C@]2(N)[C@H](O)[C@H](C(=O)N(C)C)[C@H]3c2ccccc2)cc1 (racemic) [44F, Rac-(1R,2R,3S,3aR,8bS)-8b-amino-1-hydroxy-6-methoxy-3a-(4-methoxyphenyl)-N,N-dimethyl-3-phenyl-2,3,3a,8b-tetrahydro-1H-cyclopenta[b]benzofuran-2-carboxamide] | > 1000 |  |
| COc1cncc2c1[C@]1(O)[C@H](O)[C@H](CN3CCCCC3)[C@@H](c3ccccc3)[C@]1(c1ccc(C#N)cc1)O2 (single isomer, unassigned) [258F] | < 100 |  |
| COc1ccc(Cn2cc3c(n2)[C@]2(O)[C@H](O)[C@H](C(=O)N(C)C)[C@@H](c4ccccc4)[C@]2(c2ccc(C#N)cc2)O3)cc1 (racemic) [99F, Rac-(4aR,5S,6R,7R,7aS)-4a-(4-cyanophenyl)-7,7a-dihydroxy-2-(4-methoxybenzyl)-N,N-dimethyl-5-phenyl-2,4a,5,6,7,7a-hexahydrocyclopenta[4,5]furo[3,2-c]pyrazole-6-carboxamide] | > 1000 |  |
| N#C[C@@H]1C[C@@H](c2ccccc2)[C@]2(c3ccc(Br)cc3)Oc3cc(Cl)cnc3[C@]12O (racemic) [47F, Rac-(5aR,6S,8S,8aR)-5a-(4-bromophenyl)-3-chloro-8a-hydroxy-6-phenyl-5a,7,8,8a-tetrahydro-6H-cyclopenta[4,5]furo[3,2-b]pyridine-8-carbonitrile] | > 1000 |  |
| COc1cncc2c1[C@]1(O)[C@H](O)[C@H](CN(C)C)[C@@H](c3ccccc3)[C@]1(c1ccc(C)cc1)O2 (single isomer, unassigned) [256F] | < 100 |  |
| CNS(=O)(=O)[C@H]1[C@@H](O)[C@@]2(O)c3ncc(Cl)cc3O[C@@]2(c2ccc(C#N)cc2)[C@@H]1c1ccccc1 (racemic) [125F, rac-(5aR,6S,7R,8S,8aS)-3-chloro-5a-(4-cyanophenyl)-8,8a-dihydroxy-N-methyl-6-phenyl-5a,7,8,8a-tetrahydro-6H-cyclopenta[4,5]furo[3,2-b]pyridine-7-sulfonamide] | > 1000 |  |
| COc1cncc2c1[C@]1(O)[C@H](O)[C@H](S(=O)(=O)N3CCOCC3)[C@@H](c3ccccc3)[C@]1(c1ccc(C#N)cc1)O2 (single isomer, unassigned) [126F] | 100 to 1000 |  |
| COc1cncc2c1[C@]1(O)[C@H](O)[C@H](CN3CCOCC3)[C@@H](c3ccccc3)[C@]1(c1ccc(C#N)cc1)O2 (single isomer, unassigned) [110F] | 100 to 1000 |  |
| COc1cncc2c1[C@]1(O)C(=O)C(C(=O)N(C)C)[C@@H](c3ccccc3)[C@]1(c1ccc(Br)cc1)O2 (mixture of isomers) [192F, Rac-(4bR,7S,7aR)-7a-(4-bromophenyl)-4b-hydroxy-4-methoxy-N,N-dimethyl-5-oxo-7-phenyl-4b,6,7,7a-tetrahydro-5H-cyclopenta[4,5]furo[2,3-c]pyridine-6-carboxamide] |  | > 1000 |
| COc1cncc2c1[C@]1(O)[C@H](O)[C@H](CN(C)C)[C@@H](c3ccccc3)[C@]1(c1ccc(C#N)cc1)O2 (single isomer, unassigned) [66F] | < 100 |  |
| CCN(CC)C[C@H]1[C@@H](O)[C@@]2(O)c3c(cc(OC)nc3OC)O[C@@]2(c2ccc(C#N)cc2)[C@@H]1c1ccccc1 (racemic) [232F, Rac-4-((5aR,6S,7S,8R,8aS)-7-((diethylamino)methyl)-8,8a-dihydroxy-1,3-dimethoxy-6-phenyl-6,7,8,8a-tetrahydro-5aH-cyclopenta[4,5]furo[3,2-c]pyridin-5a-yl)benzonitrile] | < 100 |  |
| COC1=C(C(=O)N(C)C)[C@@H](c2ccccc2)[C@]2(c3ccc(Br)cc3)Oc3cc(Cl)cnc3[C@]12O (racemic) [35F, rac-(5aR,6R,8aS)-5a-(4-bromophenyl)-3-chloro-8a-hydroxy-8-methoxy-N,N-dimethyl-6-phenyl-5a,8a-dihydro-6H-cyclopenta[4,5]furo[3,2-b]pyridine-7-carboxamide] | > 1000 |  |
| CNC[C@H]1[C@@H](O)[C@@]2(O)c3c(cc(Cl)nc3OC)O[C@@]2(c2ccc(C#N)cc2)[C@@H]1c1ccccc1 (racemic) [224F, Rac-4-((5aR,6S,7S,8R,8aS)-3-chloro-8,8a-dihydroxy-1-methoxy-7-((methylamino)methyl)-6-phenyl-6,7,8,8a-tetrahydro-5aH-cyclopenta[4,5]furo[3,2-c]pyridin-5a-yl)benzonitrile] | < 100 |  |
| COc1cncc2c1[C@]1(O)[C@H](O)[C@H](S(C)(=O)=O)[C@@H](c3ccccc3)[C@]1(c1ccc(C#N)cc1)O2 (single isomer, unassigned) [102F] | 100 to 1000 |  |
| CN(C)C(=O)[C@H]1[C@@H](O)[C@@]2(O)c3nn(C)c(Cl)c3O[C@@]2(c2ccc(C#N)cc2)[C@@H]1c1ccccc1 (racemic) [36F, Rac-(4aR,5S,6R,7R,7aS)-3-chloro-4a-(4-cyanophenyl)-7,7a-dihydroxy-N,N,2-trimethyl-5-phenyl-2,4a,5,6,7,7a-hexahydrocyclopenta[4,5]furo[3,2-c]pyrazole-6-carboxamide] | > 1000 |  |
| CN(C)C(=O)[C@H]1[C@@H](O)[C@@]2(O)c3n[nH]cc3O[C@@]2(c2ccc(C#N)cc2)[C@@H]1c1ccccc1 (racemic) [100F, rac-(4aR,5S,6R,7R,7aS)-4a-(4-cyanophenyl)-7,7a-dihydroxy-N,N-dimethyl-5-phenyl-2,4a,5,6,7,7a-hexahydrocyclopenta[4,5]furo[3,2-c]pyrazole-6-carboxamide] | > 1000 |  |
